Test results published in ChEMBL document CHEMBL1127625, “Modulation of the kynurenine pathway in search for new neuroprotective agents. Synthesis and preliminary evaluation of (m-nitrobenzoyl)alanine, a potent inhibitor of kynurenine-3-hydroxylase” (J Med Chem, 1994).

Experiments:
[1] = biological target: Kynurenine 3-monooxygenase (Rattus norvegicus) (UniProt O88867); test: Differences in inhibition of kynurenine-3-hydroxylase by m-NBA versus compound is determined
[2] = biological target: Kynurenine 3-monooxygenase (Rattus norvegicus, UniProt O88867); test: Ability to inhibit kynurenine-3-hydroxylase was determined in a competitive inhibition assay.
Kynureninase = biological target: T1, Kynureninase (Rattus norvegicus, UniProt P70712); test: Ability to inhibit kynureninase was determined in a competitive inhibition assay.
T1 sequence (P70712 whole entry): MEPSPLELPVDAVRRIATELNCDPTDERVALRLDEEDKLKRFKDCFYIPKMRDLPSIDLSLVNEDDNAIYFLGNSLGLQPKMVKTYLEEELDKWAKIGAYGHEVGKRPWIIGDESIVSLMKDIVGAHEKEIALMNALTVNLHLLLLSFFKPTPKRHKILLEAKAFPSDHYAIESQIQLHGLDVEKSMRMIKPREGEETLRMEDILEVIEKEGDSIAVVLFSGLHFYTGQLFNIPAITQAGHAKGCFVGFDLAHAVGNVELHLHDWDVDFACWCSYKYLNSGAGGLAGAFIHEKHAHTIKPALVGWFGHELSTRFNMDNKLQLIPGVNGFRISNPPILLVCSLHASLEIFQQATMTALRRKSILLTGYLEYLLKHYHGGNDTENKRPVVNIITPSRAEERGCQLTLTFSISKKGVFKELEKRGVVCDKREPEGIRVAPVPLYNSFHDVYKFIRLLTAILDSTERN

Mus musculus [3] = test: Sedative and anticonvulsant effects at dose 200 mg/kg, administered intraperitoneally; value expressed as clonic /tested =6/13; type: functional; details: route intraperitoneal
Rattus norvegicus [4] = test: Effect on kynurenic acid (KYNA) content in rat brain at dose 400 mg/kg administered intraperitoneally; type: functional; details: route intraperitoneal
Mus musculus [5] = test: Sedative and anticonvulsant effects at dose 400 mg/kg, administered intraperitoneally; value expressed as clonic /tested =4/6; type: functional; details: route intraperitoneal
Mus musculus [6] = test: Sedative and anticonvulsant effects at dose 200 mg/kg, administered intraperitoneally; value expressed as death /tested =0/13; type: ADME, organism-based; set-up: dose 200 mg/kg, route intraperitoneal; details: in vivo, ip
Mus musculus [7] = test: Sedative and anticonvulsant effects at dose 400 mg/kg, administered intraperitoneally; value expressed as tonic /tested =2/6; type: functional; details: route intraperitoneal
Rattus norvegicus [8] = test: Effect on […] (KYN) content in rat brain at dose 400 mg/kg administered intraperitoneally; type: functional; details: route intraperitoneal
Rattus norvegicus [9] = test: Effect on […] (KYN) content in rat blood at dose 400 mg/kg administered intraperitoneally; type: functional; details: route intraperitoneal
Rattus norvegicus [10] = test: Effect on kynurenic acid (KYNA) content in rat blood at dose 400 mg/kg administered intraperitoneally; type: functional; details: route intraperitoneal
Rattus norvegicus [11] = test: Effect on kynurenic acid (KYNA) content in rat liver at dose 400 mg/kg administered intraperitoneally; type: functional; details: route intraperitoneal
Rattus norvegicus [12] = test: Effect on […] (KYN) content in rat liver at dose 400 mg/kg administered intraperitoneally; type: functional; details: route intraperitoneal
Mus musculus [13] = test: Sedative and anticonvulsant effects at dose 400 mg/kg, administered intraperitoneally; value expressed as death /tested =2/6; type: organism-based; set-up: dose 400 mg/kg, route intraperitoneal; details: in vivo, ip
Mus musculus [14] = test: Sedative and anticonvulsant effects at dose 200 mg/kg, administered intraperitoneally; value expressed as tonic /tested =1/13; type: functional; details: route intraperitoneal

Chain of Kynurenine 3-monooxygenase (Rattus norvegicus) (O88867 whole entry, looked up): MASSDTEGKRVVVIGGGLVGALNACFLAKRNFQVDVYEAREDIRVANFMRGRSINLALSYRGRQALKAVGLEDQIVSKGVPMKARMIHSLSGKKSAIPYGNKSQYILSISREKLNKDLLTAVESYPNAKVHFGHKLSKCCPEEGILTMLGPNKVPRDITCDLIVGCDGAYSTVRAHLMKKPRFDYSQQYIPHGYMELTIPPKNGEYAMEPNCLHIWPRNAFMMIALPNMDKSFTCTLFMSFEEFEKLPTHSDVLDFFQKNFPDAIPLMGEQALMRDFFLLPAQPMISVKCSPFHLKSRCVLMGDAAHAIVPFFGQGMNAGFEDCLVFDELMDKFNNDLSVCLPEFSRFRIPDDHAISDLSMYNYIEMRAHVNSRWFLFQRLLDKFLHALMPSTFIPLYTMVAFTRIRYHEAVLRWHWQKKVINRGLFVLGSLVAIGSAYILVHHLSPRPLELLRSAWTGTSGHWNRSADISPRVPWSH
Chain of Kynurenine 3-monooxygenase (O88867 whole entry): as the sequence (O88867 whole entry, looked up) above

Row | -Log IC50/IC50 [1] | IC50 [2] | IC50 (Kynureninase) | Compound | Clonic (Mus musculus [3]) | Effect (Rattus norvegicus [4]) | Clonic (Mus musculus [5]) | Death (Mus musculus [6]) | Tonic (Mus musculus [7]) | Effect (Rattus norvegicus [8]) | Effect (Rattus norvegicus [9]) | Effect (Rattus norvegicus [10]) | Effect (Rattus norvegicus [11]) | Effect (Rattus norvegicus [12]) | Death (Mus musculus [13]) | Tonic (Mus musculus [14])
1 | 2.94 | 2000 µM | 100 µM | NC(CC(=O)c1ccccc1[N+](=O)[O-])C(=O)O (configuration not stated) [(ortho-nitrobenzoyl)alanine] | – | – | – | – | – | – | – | – | – | – | – | –
2 | 2.52 | 300 µM | 900 µM | NC(CC(=O)c1ccc([N+](=O)[O-])cc1)C(=O)O (configuration not stated) | – | – | – | – | – | – | – | – | – | – | – | –
3 | 2.89 | 900 µM | 800 µM | NC(CC(=O)c1cccnc1)C(=O)O (configuration not stated) [NICOTINOYLALANINENAL] | – | – | – | – | – | – | – | – | – | – | – | –

Row | Compound | -Log IC50/IC50 [1] | IC50 [2] | IC50 (Kynureninase) | Clonic (Mus musculus [3]) | Effect (Rattus norvegicus [4]) | Clonic (Mus musculus [5]) | Death (Mus musculus [6]) | Tonic (Mus musculus [7]) | Effect (Rattus norvegicus [8]) | Effect (Rattus norvegicus [9]) | Effect (Rattus norvegicus [10]) | Effect (Rattus norvegicus [11]) | Effect (Rattus norvegicus [12]) | Death (Mus musculus [13]) | Tonic (Mus musculus [14])
4 | NC(CC(=O)c1cccc([N+](=O)[O-])c1)C(=O)O (configuration not stated) | – | – | 100 µM | 6 | 150 pmol/g | 4 | 0 | 2 | 4000 pmol/g | 16000 pmol/g | 120 pmol/g | 250 pmol/g | 4000 pmol/g | 2 | 1
